Measurements published in patent US5834461A, “Tricyclic benzazepine vasopressin antagonists” (American Cyanamid Company, priority 1997, dated 1998).

Columns and labels:
vasopressin V2 = experiment: Vasopressin V2 Antagonist Activity in Conscious Hydrated Rats (diuretic effect); format: in vivo, normal Sprague-Dawley rats; conditions: AVP 0.4 μg/kg i.p.
Procedure, shortened: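 Conscious rats were dosed orally at 0.1–100 mg/kg, and AVP 0.4 μg/kg i.p. in peanut oil followed 1 h later. Urine volume, osmolality and Na/K/Cl were compared against AVP-treated controls, with non-AVP rats as water-loading controls.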

[1] = target: vasopressin V1 receptor (rat liver plasma membranes) (Rattus norvegicus, UniProt P30560); experiment: Binding Assay to Rat Hepatic V1 Receptors; conditions: for IC50: rat hepatic V1
vasopressin V1 = experiment: Vasopressin V1 Antagonist Activity in Conscious Rats (vasopressin vasopressor response); format: in vivo, rat (spontaneously hypertensive rats)
Procedure, shortened: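 Conscious rats had the ventral caudal tail artery cannulated into the lower abdominal aorta under local procaine anesthesia, plus a caudal vein cannula for intravenous dosing. Pulsatile blood pressure was recorded via a Statham P23Db transducer. Vasopressor responses to vasopressin injections were measured before and after compound dosing, with percent antagonism calculated relative to the pre-drug response taken as 100%.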

[2] = target: T1, rat kidney medullary V2 receptors (Rattus norvegicus, UniProt Q00788); experiment: Binding Assay to Rat Kidney Medullary V2 Receptors; conditions: for IC50: rat kidney medullary V2; for inhibition at 10 µM: rat kidney, read-out: V2, % at concentration in brackets
T1 construct: Medullary tissues from rat kidneys are dissected out; from tissue; host or cells: rat kidney medulla membranes
Procedure, shortened: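 Competition binding: [3H]AVP at 0.8 nM, test compounds from 50% DMSO, and membranes from rat kidney medulla, left 120 min on the bench. Filtration then liquid scintillation counting measured bound ligand; 1.0 μM unlabeled ligand set non-specific binding.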

T1 sequence (Q00788 whole entry): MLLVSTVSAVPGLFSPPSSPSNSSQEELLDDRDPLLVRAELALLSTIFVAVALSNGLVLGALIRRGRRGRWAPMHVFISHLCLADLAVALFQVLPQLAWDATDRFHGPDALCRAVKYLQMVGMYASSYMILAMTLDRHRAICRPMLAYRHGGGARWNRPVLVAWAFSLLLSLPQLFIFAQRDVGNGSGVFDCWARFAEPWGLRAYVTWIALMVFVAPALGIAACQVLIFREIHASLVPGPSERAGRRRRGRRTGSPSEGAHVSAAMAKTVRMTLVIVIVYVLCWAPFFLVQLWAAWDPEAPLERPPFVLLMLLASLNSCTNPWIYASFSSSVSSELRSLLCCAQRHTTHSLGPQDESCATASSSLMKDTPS
vasopressin V1 receptor (rat liver plasma membranes), sequence (P30560 whole entry): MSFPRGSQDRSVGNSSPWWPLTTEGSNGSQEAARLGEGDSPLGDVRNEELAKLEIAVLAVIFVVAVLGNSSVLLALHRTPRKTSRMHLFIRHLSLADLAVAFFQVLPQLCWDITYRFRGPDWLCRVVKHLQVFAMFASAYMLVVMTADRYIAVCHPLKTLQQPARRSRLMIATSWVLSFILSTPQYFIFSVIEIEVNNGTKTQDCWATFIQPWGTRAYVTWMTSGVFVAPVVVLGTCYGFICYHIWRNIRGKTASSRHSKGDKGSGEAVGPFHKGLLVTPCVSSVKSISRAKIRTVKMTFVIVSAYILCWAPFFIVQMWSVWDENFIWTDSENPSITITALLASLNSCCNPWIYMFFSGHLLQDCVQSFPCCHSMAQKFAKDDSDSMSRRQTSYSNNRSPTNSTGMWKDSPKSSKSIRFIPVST

Compound | Osmolality (vasopressin V2; 10 mg/kg orally) [mOsm/kg] | Urine Volume (vasopressin V2; 10 mg/kg orally) [ml/4 hrs.] | IC50 [1] [µM] | MAX % Inhibition (vasopressin V1; 30 mg/kg i.v.) [%] | Time of max % inhibition (vasopressin V1; 30 mg/kg i.v.) [min] | IC50 [2] [µM] | MAX % Inhibition (vasopressin V1; 10 mg/kg i.v.) [%] | Time of max % inhibition (vasopressin V1; 10 mg/kg i.v.) [min] | other results
Cc1c(F)cccc1C(=O)Nc1ccc(C(=O)N2Cc3ccccc3Cc3ccccc32)cc1Cl [Example 262, N-[4-[(6,11-Dihydro-5H-dibenz[b,e]azepin-5-yl)-carbonyl]-2-chlorophenyl]-2-methyl-3-fluorobenzamide] | 899 | 6.8 | – | – | – | – | – | – | –
O=C(Nc1ccc(C(=O)N2Cc3ccccc3Cc3ccccc32)cc1)c1cccc(Cl)c1Cl [Example 253, N-[4-[(6,11-Dihydro-5H-dibenz[b,e]azepin-5-yl)-carbonyl]phenyl]-2,3-dichlorobenzamide] | 837 | 6 | 0.31 | 57 | 180 | 0.19 | – | – | –
Cc1ccc(F)cc1C(=O)Nc1ccc(C(=O)N2CCc3c[nH]nc3-c3ccccc32)cc1 [Example 584, N-[4-[(4.5-Dihydropyrazolo[4,3-d][1]benzazepin-6(2H)-yl)carbonyl]phenyl]-5-fluoro-2-methylbenzamide] | – | – | 0.039 | – | – | 0.011 | – | – | –
Cc1ccccc1C(=O)N(CN(C)C)c1ccc(C(=O)N2Cc3ccccc3Cc3ccccc32)cc1 [Example 267, N-[4-[(6,11-Dihydro-5H-dibenz[b,e]azepin-5-yl)-carbonyl]phenyl]-N-[(dimethylamino)methyl]-2-methylbenzamide] | 517 | 7.5 | 0.026 | – | – | 0.082 | 74 | 120 | –
Cc1ccc(F)cc1C(=O)Nc1ccc(C(=O)N2CCc3c[nH]nc3-c3ccccc32)c(Cl)c1 [Example 581] | – | – | 0.74 | – | – | 0.0113 | – | – | –
Cc1ccccc1C(=O)Nc1ccc(C(=O)N2CCc3cn(C)nc3-c3ccccc32)cc1 [Example 379, N-[4-[(4,5-Dihydro-2-methylpyrazolo[4,3-d][1]-benzazepin-6(2H)-yl)carbonyl]phenyl]-2-methylbenzamide] | – | – | 0.25 | – | – | 0.053 | 75 | 300 | Osmolality (vasopressin V2; 20 mg/kg orally): 483 mOsm/kg; Urine Volume (vasopressin V2; 20 mg/kg orally): 7 ml/4 hrs.
Cc1ccccc1C(=O)Nc1c(C)cc(C(=O)N2Cc3ccccc3Cc3ccccc32)cc1C [Example 258, N-[4-[(6,11-Dihydro-5H-dibenz[b,e]azepin-5-yl)-carbonyl]-2,6-dimethylphenyl]-2-methylbenzamide] | – | – | – | 61 | 60 | – | – | – | inhibition at 10 µM ([1]; 2 h, 10 μM, rat hepatic, read-out: V1, % at concentration in brackets): 75%; inhibition at 10 µM [2]: 87%
O=C(Nc1ccc(C(=O)N2Cc3ccccc3Sc3ccccc32)cc1)c1ccccc1Cl [Example 448, N-[4-[(Dibenz[b,f][1,4]thiazepin-10(11H)yl)-carbonyl]phenyl]-2-chlorobenzamide] | – | – | 0.073 | 60 | 90 | 0.19 | – | – | Osmolality (vasopressin V2; 30 mg/kg orally): 1084 mOsm/kg; Urine Volume (vasopressin V2; 30 mg/kg orally): 4.8 ml/4 hrs.
Cc1nc2c(s1)CCN(C(=O)c1ccc(NC(=O)c3ccc(Cl)cc3Cl)cc1)c1ccccc1-2 [Example 455, N-[4-(4,5-Dihydro-2-methyl-6H-thiazolo[5,4-d][1]-benzazepin-6-yl)carbonyl1phenyl]-2,4-dichlorobenzamide] | 420 | 13.5 | – | 46 | 120 | – | – | – | –
COc1cc(C(=O)N2Cc3ccccc3Cc3ccccc32)ccc1NC(=O)c1ccc(Cl)cc1Cl [Example 263, N-[4-[(6,11-Dihydro-5H-dibenz[b,e]azepin-5-yl)-carbonyl]-2-methoxyphenyl]-2,4-dichlorobenzamide] | – | – | – | – | – | – | 55 | 90 | –
O=C(Nc1ccc(C(=O)N2Cc3ccccc3Cc3ccccc32)cc1)c1cc(Cl)cc(Cl)c1 [Example 251, N-(4-[(6,11-Dihydro-5H-dibenz[b,e]azepin-5-yl)-carbonyl]phenyl]-3,5-dichlorobenzamide] | 835 | 7.5 | 1.5 | 41 | 60 | 0.14 | – | – | –
O=C(Nc1ccc(C(=O)N2Cc3ccccc3Cc3ccccc32)cc1)C1CC=CCC1 (stereo not drawn) [Example 255, N-[4-[(6,11-Dihydro-5H-dibenz[b,e]azepin-5-yl)-carbonyl]phenyl]-3-cyclohexene-1-carboxamide] | – | – | 0.027 | – | – | 0.039 | 65 | 60 | Osmolality (vasopressin V2; 30 mg/kg orally): 1456 mOsm/kg; Urine Volume (vasopressin V2; 30 mg/kg orally): 2.3 ml/4 hrs.
COc1cc(C(=O)N2Cc3ccccc3Cc3ccccc32)ccc1NC(=O)c1cc(F)ccc1C [Example 261, N-[4-[(6,11-Dihydro-5H-dibenz[b,e]azepin-5-yl)-carbonyl]-2-methoxyphenyl]-2-methyl-5-fluorobenzamide] | 1337 | 3.8 | – | – | – | – | 74 | 60 | –
Cc1ccccc1C(=O)Nc1ccc(C(=O)N2Cc3ccccc3Cc3ccccc32)cc1 [Example 2, N-[4-[(6,11-Dihydro-5H-dibenz[b,e]azepin-5-yl)carbonyl]phenyl]-2-methylbenzamide] | 408 ± 34 | 15.2 ± 2.4 | 0.15 | – | – | 0.068 | – | – | Osmolality (vasopressin V2; 3 mg/kg orally): 1235 ± 162 mOsm/kg; Urine Volume (vasopressin V2; 3 mg/kg orally): 2.9 ± 0.5 ml/4 hrs.; Osmolality (vasopressin V2; 30 mg/kg orally): 401 ± 49 mOsm/kg; Urine Volume (vasopressin V2; 30 mg/kg orally): 18.9 ± 1.7 ml/4 hrs.; MAX % Inhibition (vasopressin V1; 10 mg/kg p.o.): 65%; Time of max % inhibition (vasopressin V1; 10 mg/kg p.o.): 180 min
CC(C)COc1ccc([N+](=O)[O-])cc1C(=O)Nc1ccc(C(=O)N2Cc3ccccc3Cc3ccccc32)cc1 [Example 453] | 776 | 9.4 | – | – | – | – | – | – | inhibition at 10 µM [2]: 26%
Cc1ncc2c(n1)-c1ccccc1N(C(=O)c1ccc(NC(=O)c3ccccc3C)cc1)CC2 [Example 416, N-[4-[(6,7-Dihydro-2-methyl-5H-pyrimido[5,4-d][1]-benzazepin-7-yl)carbonyl]phenyl]-2-methylbenzamide] | 1156 | 4.3 | 34.5 | 44 | 90 | 1.1 | – | – | –
COc1cc(C(=O)N2Cc3ccccc3Cc3ccccc32)ccc1NC(=O)c1ccccc1C [Example 257, N-[4-[(6,11-Dihydro-5H-dibenz[b,e]azepin-5-yl)-carbonyl]-2-methoxyphenyl]-2-methylbenzamide] | 434 | 11.8 | – | – | – | – | 71 | 60 | –
Cc1cc(C(=O)N2Cc3ccccc3Cc3ccccc32)cc(C)c1NC(=O)c1ccc(Cl)cc1Cl [Example 259, N-[4-[(6,11-Dihydro-5H-dibenz[b,e]azepin-5-yl)-carbonyl]-2,6-dimethylphenyl]-2 4-dichlorobenzamide] | 1080 | 6 | 4 | 29 | 90 | – | – | – | inhibition at 10 µM [2]: 13%
Cc1nc2c(s1)CCN(C(=O)c1ccc(NC(=O)c3cc(F)ccc3C)cc1)c1ccccc1-2 [Example 534] | 695 | 10.6 | – | – | – | – | – | – | –
